# Values quoted from earlier work in US20160193276A1 (Teva Pharmaceutical Industries, Ltd., priority 2012, published 2016).
# Experiments:
# mice = settings: orally administered
# rats = settings: orally administered
# MS patients = settings: 20 mg/day subcutaneous (s.c.)
# [1] = test system: patients with relapsing multiple sclerosis; settings: administered orally
substance,measurement,setting,value
"L-glutamic acid polymer with L-alanine, L-lysine, L-tyrosine, acetate (salt) [glatiramer acetate]",Induction of EAE,mice,inhibited
same,Induction of EAE,rats,inhibited
same,Total number of enhancing lesions as measured by MRI,MS patients,reduce
same,Relapse rate or other clinical MRI parameters of disease activity,[1],did not affect
